Measured values: patent publication US20070123569A1, “THERAPEUTIC METHODS USING PROSTAGLANDIN EP4 AGONIST COMPONENTS” (ALLERGAN, INC., priority 2005, published 2007)

Experiments:
IEC-18 cells = experiment: Indomethacin-induced apoptosis of IEC-18 cells (flow cytometry); type: cell-based, rat; details: 24 h, FIG. 1
Description: Rat ileum epithelial cells identified as IEC-18, were purchased from ATCC. The cells were seeded and cultured overnight. In three (3) series of tests, each of PGE2, prostaglandin EP4 agonist 1 and prostaglandin EP4 agonist prodrug 3 was given at one or two concentrations to separate samples of the cells in a serum-free medium. One hour later, the non-steroidal anti-inflammatory drug (NSAID) indomethacin at 100 μM was added into the culture medium to induce apoptosis of the IEC-18 cells. Twenty four (24) hours after the addition of indomethacin, the cells were collected and processed for flow cytometry analysis. Ten thousand (10,000) cells were sorted for each sample, and the percentage of apoptotic cells was calculated.

AGS cells = experiment: Indomethacin-induced apoptosis of AGS gastric epithelial cells (flow cytometry); type: cell-based; details: FIG. 2
Description: Studies similar to those described for Examples 38 to 40 were conducted on cultured human gastric epithelial cells. This cell line, designated as AGS, was purchased from ATCC. […] Prostaglandin EP4 agonist 1 was given at four different concentrations to separate samples of the cells in a serum-free medium. One hour later, indomethacin at 400 μM was added into the culture medium in three of the samples to induce apoptosis of the AGS cells. Twenty four (24) hours after the addition of indomethacin, the cells were collected and processed for flow cytometry analysis. Ten thousand (10,000) cells were sorted for each sample, and the percentage of apoptotic cells was calculated.

gastric mucous cells = experiment: BrdU immunostaining of stomach tissue sections from indomethacin-dosed mice; type: in vivo, mouse; details: given prior to indomethacin, FIG. 7
Description: Each of prostagiandin EP4 agonist 1 and PGE 1 analog Misoprostol was given to C57BL/6 mice at two or three concentrations. Twenty four (24) hours and 30 minutes later, the NSAID indomethacin was given at 20 mg/kg to induce stomach lesions and stomach inflammation. Twenty four (24) hours after indomethacin dosing, the mice were sacrificed and the stomach lesions were scored histopathologically and by gross lesion count.
BrdU immunostaining was performed on stomach tissue sections from mice treated with the prostaglandin EP4 agonist 1 and the PGE1 analog Misoprostol. Incorporation of BrdU label, as detected with positive BrdU immunostaining, is indicative of cell growth/regeneration. The abilities of prostaglandin EP4 agonist 1 and the PGE1 analog Misoprostol to regenerate gastric epithelial cells when given prior to indomethacin dosing were compared. The mean percentages of BrdU label incorporated cells in stomach tissue sections and the standard errors of the means from both treatments are shown in FIG. 7.

## CCCCC[C@H](O)/C=C/[C@H]1[C@H](O)CC(=O)[C@@H]1C/C=C\CCCC(=O)O [PGE2, prostaglandin E2, reference compound]
IEC-18 cells; serum-free medium, indomethacin 100 μM added 1 h after compound
  reduction of indomethacin-induced apoptosis: about 65%

## COc1ccc2c(c1)c(CC(=O)O)c(C)n2C(=O)c1ccc(Cl)cc1 [Indomethacin, indomethacin, reference compound]
AGS cells; indomethacin 400 μM, 24 h
  apoptosis induced by indomethacin itself: about 30%

## CC1(C)C(=O)[C@H](C/C=C\CCCC(=O)O)[C@@H](/C=C/C(O)CCc2sc3ccccc3c2Cl)[C@@H]1O (stereo partly drawn) [prostaglandin EP4 agonist 1]
AGS cells; serum-free medium
  apoptosis or cell death with the agonist alone (no indomethacin): very little or substantially no apoptosis or cell death
IEC-18 cells; indomethacin 100 μM
  effect on indomethacin-induced apoptosis (in words): reduced indomethacin-induced apoptosis significantly
Gastric mucous cells
  restoration of regenerative ability of gastric mucous cells, BrdU label (in words): significant restoration
Gastric mucous cells; maximum dose employed
  restoration of regenerative ability of gastric mucous cells injured by indomethacin (BrdU label): about 25%
